Laboratory results as given in patent US20050170485A1, “Culture having phenol oxidase-like activity” (priority 2002, published 2005).

Columns and labels:
Assay type in all cases: biochemical
[1] = system: culture of Flammulina velutipes strain IFO 30601; assay: Direct oxidation reaction by the culture; conditions: for Relative Activity, Culture (direct oxidation): reaction pH 7.0, 2-chloro 1,4-phenylenediamine = 100; for activity of the culture compared with bilirubin oxidase from the genus Myrothecium, direct oxidation / activity of the culture compared with laccase from Japanese lacquer, direct oxidation: pH 7.0, relative activities of Table 7; for activity of the culture for the substrate in words, direct oxidation reaction: pH 7.0
Method: Further, the direct oxidation reaction of the culture obtained in the above-mentioned example was determined by using color development due to oxidative polymerization of a substrate generated by the direct action of the culture of the present invention on the substrate as an index.
As the substrates, there were used diaminophenolic compounds (2-chloro 1,4-phenylenediamine, p-phenylenediamine, 2,5-diaminotoluene, N-phenyl-p-phenylenediamine, toluylene-3,4-diamine, m-phenylenediamine), aminophenolic compounds (o-aminophenol, m-aminophenol, 5-amino-o-cresol, p-aminophenol, p-methylaminophenol), and phenolic compounds (2,6-dimethoxyphenol, catechol, resorcinol, hydroquinone, pyrogallol, gallic acid, propyl gallate, 1-naphthol, […], 2,3,4-trihydroxybenzophenone, 2,3,4,4-tetrahydroxybenzophenone). As to a substrate hardly soluble in water, there was used one obtained by dissolving the substrate in a small amount of dimethyl sulfoxide and diluting the resulting solution with deionized distilled water to a desired concentration. In Table 6, %” indicates volume/volume %.
(§1) Concretely, 180 μl of 0.89 mM sodium phosphate buffer (pH 7.0) containing […] substrate was pre-incubated in wells of a 96-well microplate [manufactured by Corning, Costor (registered trademark) 3368] at 25° C. for 1 minute. Next, 20 μl of the above-mentioned culture solution was added to the resulting mixture. A change in absorbance at 490 nm, 450 nm or 405 nm was determined for the resulting product, depending on the substrate. Here, 1 U (unit) of the activity regarding the direct oxidative reaction was defined as an amount for increasing the absorbance by 1 per one minute.

[2] = system: laccase from Japanese lacquer; assay: Direct oxidation reaction by laccase (comparison); conditions: reaction pH 7.0; 2-chloro 1,4-phenylenediamine = 100
Method: Next, 20 μl of the above-mentioned culture solution was added to the resulting mixture. A change in absorbance at 490 nm, 450 nm or 405 nm was determined for the resulting product, depending on the substrate. Here, 1 U (unit) of the activity regarding the direct oxidative reaction was defined as an amount for increasing the absorbance by 1 per one minute.
(§2) In addition, for the comparison, the substrate specificities at pH 7.0 for laccase from Japanese lacquer and bilirubin oxidase from the strain belonging to the genus Myrothecium were also examined in the same manner.

[3] = target: T1, bilirubin oxidase from the strain belonging to the genus Myrothecium (Albifimbria verrucaria, UniProt Q12737); assay: Direct oxidation reaction by bilirubin oxidase (comparison); set-up: concentration or dose not given beside the values; conditions: reaction pH 7.0; 2-chloro 1,4-phenylenediamine = 100
T1 sequence (Q12737 39-572): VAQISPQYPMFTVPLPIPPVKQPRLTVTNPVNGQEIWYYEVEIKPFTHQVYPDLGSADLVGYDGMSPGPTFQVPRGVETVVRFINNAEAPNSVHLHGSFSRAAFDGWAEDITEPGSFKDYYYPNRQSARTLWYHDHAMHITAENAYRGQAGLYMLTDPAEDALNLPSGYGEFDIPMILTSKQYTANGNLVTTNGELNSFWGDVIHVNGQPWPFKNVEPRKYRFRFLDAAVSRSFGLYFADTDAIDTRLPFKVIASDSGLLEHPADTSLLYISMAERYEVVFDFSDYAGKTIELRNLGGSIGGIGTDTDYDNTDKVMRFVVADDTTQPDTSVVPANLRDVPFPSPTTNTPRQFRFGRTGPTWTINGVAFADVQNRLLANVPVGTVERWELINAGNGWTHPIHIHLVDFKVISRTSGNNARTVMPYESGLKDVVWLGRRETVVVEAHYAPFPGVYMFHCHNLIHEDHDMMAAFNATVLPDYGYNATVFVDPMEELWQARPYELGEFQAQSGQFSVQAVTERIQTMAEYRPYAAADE
Method: as §1, §2
The relative activity (%) for each substrate is shown in Table 7, in which the measured value for a case where a representative chemical dye 2-chloro 1,4-phenylenediamine was used as a substrate is 100.

[4] = system: culture of Flammulina velutipes strain IFO 30601; assay: Oxidative coupling reaction with 4-aminoantipyrine by the culture; conditions: for activity of the culture for the substrate in words, oxidative coupling reaction: pH 7.0; for Specific Activity, Culture (oxidative coupling with 4-aminoantipyrine): reaction pH 7.0, 25° C., substrate 2.0 mM
Method: Next, the oxidative coupling reaction of the culture obtained in (2) in Example 1 mentioned above was determined by using color development as an index by the oxidative condensation of the substrate (hydrogen donor) with 4-aminoantipyrine, catalyzed by the culture of the present invention.
As the hydrogen donors, there were used phenolic compounds (phenol, 2-methoxyphenol, 2,6-dimethoxyphenol, catechol, resorcinol, hydroquinone, pyrogallol, gallic acid, propyl gallate, 1-naphthol, catechin), aminophenolic compounds (o-aminophenol, m-aminophenol, p-aminophenol), diaminophenolic compounds (o-phenylenediamine, m-phenylenediamine, p-phenylenediamine), and heterocyclic compounds (5-hydroxyindole, 2,6-diaminopyridine).
The above-mentioned culture solution was added to a reaction system containing 4-aminoantipyrine and an optional hydrogen donor. Thereafter, the activity of the culture of the present invention was assayed by determining a change in absorbance at 490 nm for the phenolic compound, the diaminophenolic compound and the heterocyclic compound, or determining a change in absorbance at 450 nm for the aminophenolic compound. As to a substrate hardly soluble in water, there was used one obtained by dissolving the substrate in a small amount of dimethyl sulfoxide and diluting the resulting solution with deionized water to a desired concentration. In Table 4, DMSO is an abbreviation for dimethyl sulfoxide.
(§3) Concretely, 190 μl of 105.3 mM phosphate buffer (pH 7.0) containing 0.4 μmol of a substrate and 4.0 μmol of 4-aminoantipyrine was pre-incubated in wells of a 96-well microplate [manufactured by Corning, Costor (registered trademark) 3368] at 25° C. for 1 minute. Next, 10 μl of the above-mentioned culture solution was added to the resulting mixture, and thereafter, the mixture was incubated for 1 hour. A change in absorbance at 490 nm or 450 nm was determined for the resulting product. One unit (U) of the activity regarding the oxidative coupling reaction was defined as an amount for increasing the absorbance by 1 per one minute.

[5] = target: T2, bilirubin oxidase from the strain of the genus Myrothecium (Albifimbria verrucaria, UniProt Q12737); assay: Oxidative coupling reaction with 4-aminoantipyrine by bilirubin oxidase (comparison); conditions: reaction pH 8.0, substrate 2.0 mM
T2 sequence (Q12737 39-572): T1 sequence (Q12737 39-572)
Method: as §3
In addition, for the comparison, the examination was made in the same manner for bilirubin oxidase from the strain of the genus Myrothecium except that the above-mentioned buffer was replaced with 105.3 mM Tris-HCl buffer (pH 8.0).

## C1=CCC2=CC=CCC2=C1 [1,5-Dihydronaphthalene]
[1]
  Relative Activity, Culture (direct oxidation): 63%
[2]
  Relative Activity, Laccase from Japanese Lacquer (direct oxidation): 47%
[3]
  Relative Activity, Bilirubin Oxidase from Strain Belonging to Genus Myrothecium (direct oxidation): 69%

## Oc1cccc2ccccc12 [1-Naphthol]
[4]
  activity of the culture for the substrate in words, oxidative coupling reaction: especially high activity
  Specific Activity, Culture (oxidative coupling with 4-aminoantipyrine): 18.1 U/mg Protein
[5]
  Specific Activity, Bilirubin Oxidase from Strain Belonging to Genus Myrothecium (oxidative coupling with 4-aminoantipyrine): 33.0 U/mg Protein
[1]
  activity of the culture compared with bilirubin oxidase from the genus Myrothecium, direct oxidation: even higher activity
  Relative Activity, Culture (direct oxidation): 17%
[2]
  Relative Activity, Laccase from Japanese Lacquer (direct oxidation): 17%
[3]
  Relative Activity, Bilirubin Oxidase from Strain Belonging to Genus Myrothecium (direct oxidation): 50%

## O=C(c1ccc(O)cc1)c1ccc(O)c(O)c1O [2,3,4,4-Tetrahydroxybenzophenone]
[1]
  activity of the culture for the substrate in words, direct oxidation reaction: high activity
  activity of the culture compared with bilirubin oxidase from the genus Myrothecium, direct oxidation: even higher activity
  activity of the culture compared with laccase from Japanese lacquer, direct oxidation: higher activity
  Relative Activity, Culture (direct oxidation): 571%
[1]; listed as 2,3,4,4-tetrahydrobenzophenone
  activity of the culture for the substrate in words, direct oxidation reaction: especially high activity
[2]
  Relative Activity, Laccase from Japanese Lacquer (direct oxidation): 179%
[3]
  Relative Activity, Bilirubin Oxidase from Strain Belonging to Genus Myrothecium (direct oxidation): 52%

## O=C(c1ccccc1)c1ccc(O)c(O)c1O [2,3,4-Trihydroxybenzophenone]
[1]
  activity of the culture for the substrate in words, direct oxidation reaction: especially high activity
  activity of the culture compared with bilirubin oxidase from the genus Myrothecium, direct oxidation: even higher activity
  activity of the culture compared with laccase from Japanese lacquer, direct oxidation: higher activity
  Relative Activity, Culture (direct oxidation): 537%
[2]
  Relative Activity, Laccase from Japanese Lacquer (direct oxidation): 175%
[3]
  Relative Activity, Bilirubin Oxidase from Strain Belonging to Genus Myrothecium (direct oxidation): 62%

## Cc1cc(N)ccc1N [2,5-Diaminotoluene]
[1]
  activity of the culture compared with bilirubin oxidase from the genus Myrothecium, direct oxidation: higher activity
  Relative Activity, Culture (direct oxidation): 80%
[2]
  Relative Activity, Laccase from Japanese Lacquer (direct oxidation): 44%
[3]
  Relative Activity, Bilirubin Oxidase from Strain Belonging to Genus Myrothecium (direct oxidation): 24%

## Nc1cccc(N)n1 [2,6-Diaminopyridine]
[4]
  activity of the culture for the substrate in words, oxidative coupling reaction: high activity
  Specific Activity, Culture (oxidative coupling with 4-aminoantipyrine): 37.7 U/mg Protein
[5]
  Specific Activity, Bilirubin Oxidase from Strain Belonging to Genus Myrothecium (oxidative coupling with 4-aminoantipyrine): 2.3 U/mg Protein

## Nc1ccc(N)c(Cl)c1 [2-Chloro 1,4-phenylenediamine]
[1]
  Relative Activity, Culture (direct oxidation): 100%
[2]
  Relative Activity, Laccase from Japanese Lacquer (direct oxidation): 100%
[3]
  Relative Activity, Bilirubin Oxidase from Strain Belonging to Genus Myrothecium (direct oxidation): 100%

## Cc1ccc(N)cc1O [5-Amino-o-cresol]
[1]
  activity of the culture compared with bilirubin oxidase from the genus Myrothecium, direct oxidation: even higher activity
  activity of the culture compared with laccase from Japanese lacquer, direct oxidation: even higher activity
  Relative Activity, Culture (direct oxidation): 117%
[2]
  Relative Activity, Laccase from Japanese Lacquer (direct oxidation): 1%
[3]
  Relative Activity, Bilirubin Oxidase from Strain Belonging to Genus Myrothecium (direct oxidation): 19%

## Oc1ccc2[nH]ccc2c1 [5-Hydroxyindole]
[4]
  Specific Activity, Culture (oxidative coupling with 4-aminoantipyrine): 4.7 U/mg Protein
[5]
  Specific Activity, Bilirubin Oxidase from Strain Belonging to Genus Myrothecium (oxidative coupling with 4-aminoantipyrine): 1.9 U/mg Protein

## O=C(O)c1cc(O)c(O)c(O)c1 [Gallic acid]
[4]
  Specific Activity, Culture (oxidative coupling with 4-aminoantipyrine): 0.9 U/mg Protein
[5]
  Specific Activity, Bilirubin Oxidase from Strain Belonging to Genus Myrothecium (oxidative coupling with 4-aminoantipyrine): 14.9 U/mg Protein
[1]
  activity of the culture compared with laccase from Japanese lacquer, direct oxidation: even higher activity
  Relative Activity, Culture (direct oxidation): 65%
[2]
  Relative Activity, Laccase from Japanese Lacquer (direct oxidation): 9%
[3]
  Relative Activity, Bilirubin Oxidase from Strain Belonging to Genus Myrothecium (direct oxidation): 88%

## Nc1ccc(Nc2ccccc2)cc1 [N-Phenyl-p-phenylenediamine]
[1]
  activity of the culture for the substrate in words, direct oxidation reaction: especially high activity
  Relative Activity, Culture (direct oxidation): 174%
[2]
  Relative Activity, Laccase from Japanese Lacquer (direct oxidation): 94%
[3]
  Relative Activity, Bilirubin Oxidase from Strain Belonging to Genus Myrothecium (direct oxidation): 102%

## Oc1ccccc1 [Phenol]
[4]
  Specific Activity, Culture (oxidative coupling with 4-aminoantipyrine): 8.1 U/mg Protein
[5]
  Specific Activity, Bilirubin Oxidase from Strain Belonging to Genus Myrothecium (oxidative coupling with 4-aminoantipyrine): 0.9 U/mg Protein

## Cc1ccc(N)c(N)c1 [Toluylene-3,4-diamine]
[1]
  activity of the culture compared with bilirubin oxidase from the genus Myrothecium, direct oxidation: higher activity
  Relative Activity, Culture (direct oxidation): 120%
[2]
  Relative Activity, Laccase from Japanese Lacquer (direct oxidation): 61%
[3]
  Relative Activity, Bilirubin Oxidase from Strain Belonging to Genus Myrothecium (direct oxidation): 45%

## Nc1ccccc1N [o-Phenylenediamine]
[4]
  Specific Activity, Culture (oxidative coupling with 4-aminoantipyrine): 15.1 U/mg Protein
[5]
  Specific Activity, Bilirubin Oxidase from Strain Belonging to Genus Myrothecium (oxidative coupling with 4-aminoantipyrine): 4.5 U/mg Protein

## CNc1ccc(O)cc1 [p-Methylaminophenol]
[1]
  activity of the culture for the substrate in words, direct oxidation reaction: especially high activity
  activity of the culture compared with bilirubin oxidase from the genus Myrothecium, direct oxidation: higher activity
  Relative Activity, Culture (direct oxidation): 304%
[2]
  Relative Activity, Laccase from Japanese Lacquer (direct oxidation): 308%
[3]
  Relative Activity, Bilirubin Oxidase from Strain Belonging to Genus Myrothecium (direct oxidation): 122%

## Catechin
[4]
  activity of the culture for the substrate in words, oxidative coupling reaction: especially high activity
  Specific Activity, Culture (oxidative coupling with 4-aminoantipyrine): 14.0 U/mg Protein
[5]
  Specific Activity, Bilirubin Oxidase from Strain Belonging to Genus Myrothecium (oxidative coupling with 4-aminoantipyrine): 4.6 U/mg Protein
